What is called IC50 is the midpoint of a concentration-inhibition curve.

Results on three molecules are retold here after patent US10011571B2, “Preparation method for aromatic heterocyclic compound used as selective JAK3 and/or JAK1 kinase inhibitor and application of aromatic heterocyclic compound” (SHENZHEN CHIPSCREEN BIOSCIENCES, LTD., priority 2014, dated 2018).

Common to all, as to type: biochemical
One experiment deals with JAK2 (Homo sapiens (Human), UniProt O60674). The experiment in a line: Eurofins IC50Profiler radiometric kinase assay, JAK2. The settings on record: 9 semilog concentrations. The source says: (§1) A proportion of the compounds of the present invention are subjected to kinase profile screening (KinaseProfiler™)) and enzymatic inhibitory activity (IC50Profiler™)) assay by entrusting Eurofins company (http://www.eurofins.com). Besides the kinases in the JAK family, the kinases that have been screened for their activity also include most Group 3F and Group 4 kinases (ITK, BLK, TBK1, VEGFRs, ERBBs, etc.), and blood system related kinases (Zhang J. et al. 2009, Nat. Rev. Cancer., 9: 28-39). The concentration of the test compound for kinase profile screening is 1 μM, and a gradient of 9 semilog concentration gradients are used to determine IC50. Detection is carried out according to standard procedure of Eurofins Company. Briefly, according to the requirements of different kinase reactions, 0.2 μL test compound (50 μM, dissolved in dimethyl sulfoxide (DMSO)) is added to reaction buffer containing specific kinase (the buffer system containing 20 mM MOPS, 1 mM EDTA, 0.01% Brij-35, 5% Glycerol, 0.1% β-mercaptoethanol, 1 mg/mL BSA, or 50 mM TRIS, 0.1 mM EGTA, 0.1 mM Na3VO4, 0.1% β-mercaptoethanol, 1 mg/mL BSA, based on the type of kinase used). Subsequently, a kinase specific substrate at a final concentration of 50 μM (specific substrate used for specific kinase), 10 mM Mg Acetate and isotope-labeled γ-^33P ATP (radio-activity of about 500 cpm/pmol) are sequentially added to a total volume of 10 μL for the reaction system. After incubation at room temperature for 40 min, the reaction is terminated by adding 3% phosphoric acid solution. The mixture is then transferred to a filter-type low temperature spray dryer (P30 filtermat), and washed by 75 mM phosphoric acid solution for 3 times and by methanol once. After drying, radio-activity is detected. For specific procedure, see the standard procedure provided by Eurofins Company: http://www.eurofins.com/media/9724077/kinaseprofiler_assay_protocol_guide_eurofins_v64.pdf).
Chain of JAK2 (O60674 whole entry, species assumed): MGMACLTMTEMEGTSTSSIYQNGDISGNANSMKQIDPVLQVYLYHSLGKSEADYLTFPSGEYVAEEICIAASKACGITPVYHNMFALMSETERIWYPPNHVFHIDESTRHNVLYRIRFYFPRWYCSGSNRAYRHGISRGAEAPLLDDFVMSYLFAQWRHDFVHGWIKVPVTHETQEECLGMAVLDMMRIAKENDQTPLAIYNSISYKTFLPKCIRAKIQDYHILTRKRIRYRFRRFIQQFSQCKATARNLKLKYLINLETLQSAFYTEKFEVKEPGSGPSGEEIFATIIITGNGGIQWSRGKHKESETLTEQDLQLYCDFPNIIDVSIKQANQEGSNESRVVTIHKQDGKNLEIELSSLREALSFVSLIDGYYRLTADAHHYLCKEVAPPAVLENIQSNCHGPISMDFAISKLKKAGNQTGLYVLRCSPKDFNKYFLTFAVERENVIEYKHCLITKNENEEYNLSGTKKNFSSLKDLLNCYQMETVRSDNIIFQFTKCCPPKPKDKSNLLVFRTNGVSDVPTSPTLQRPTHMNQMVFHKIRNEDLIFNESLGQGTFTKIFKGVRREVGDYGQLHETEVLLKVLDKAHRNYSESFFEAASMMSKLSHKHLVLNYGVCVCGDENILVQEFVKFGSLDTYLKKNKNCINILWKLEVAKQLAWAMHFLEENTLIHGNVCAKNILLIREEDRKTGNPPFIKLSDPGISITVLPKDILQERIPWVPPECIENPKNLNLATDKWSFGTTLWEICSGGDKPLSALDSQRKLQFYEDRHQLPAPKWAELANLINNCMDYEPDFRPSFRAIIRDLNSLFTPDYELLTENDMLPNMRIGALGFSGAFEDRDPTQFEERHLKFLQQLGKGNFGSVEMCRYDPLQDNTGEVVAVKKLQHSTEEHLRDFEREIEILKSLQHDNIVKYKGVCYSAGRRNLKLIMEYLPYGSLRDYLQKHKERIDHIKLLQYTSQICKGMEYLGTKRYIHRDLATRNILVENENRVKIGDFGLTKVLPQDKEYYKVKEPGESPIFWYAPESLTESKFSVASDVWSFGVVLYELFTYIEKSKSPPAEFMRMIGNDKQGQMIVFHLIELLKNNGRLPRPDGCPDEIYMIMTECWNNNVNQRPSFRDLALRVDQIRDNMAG

In another experiment the target is JAK3 (Homo sapiens (Human), UniProt P52333). The experiment in a line: Z'-LYTE enzymatic activity detection, JAK3. The settings on record: test compound 30 nM; for inhibition at 0.03 µM: read-out: JAK3 % inhibitory rate @30 nM. The method in brief: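 GST-tagged human recombinant kinases with Z′-LYTE peptides (Tyr6 for JAK1, Tyr4 for JAK2 and JAK3), ATP from kit, reacted 1 h at room temperature; development 1 h, ratio 445/520 nm at 400 nm excitation gives phosphorylation. Inhibition vs solvent control at 30 nM (JAK2, JAK3) or 300 nM (JAK1); tofacitinib as positive control.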
Chain of JAK3 (P52333 whole entry): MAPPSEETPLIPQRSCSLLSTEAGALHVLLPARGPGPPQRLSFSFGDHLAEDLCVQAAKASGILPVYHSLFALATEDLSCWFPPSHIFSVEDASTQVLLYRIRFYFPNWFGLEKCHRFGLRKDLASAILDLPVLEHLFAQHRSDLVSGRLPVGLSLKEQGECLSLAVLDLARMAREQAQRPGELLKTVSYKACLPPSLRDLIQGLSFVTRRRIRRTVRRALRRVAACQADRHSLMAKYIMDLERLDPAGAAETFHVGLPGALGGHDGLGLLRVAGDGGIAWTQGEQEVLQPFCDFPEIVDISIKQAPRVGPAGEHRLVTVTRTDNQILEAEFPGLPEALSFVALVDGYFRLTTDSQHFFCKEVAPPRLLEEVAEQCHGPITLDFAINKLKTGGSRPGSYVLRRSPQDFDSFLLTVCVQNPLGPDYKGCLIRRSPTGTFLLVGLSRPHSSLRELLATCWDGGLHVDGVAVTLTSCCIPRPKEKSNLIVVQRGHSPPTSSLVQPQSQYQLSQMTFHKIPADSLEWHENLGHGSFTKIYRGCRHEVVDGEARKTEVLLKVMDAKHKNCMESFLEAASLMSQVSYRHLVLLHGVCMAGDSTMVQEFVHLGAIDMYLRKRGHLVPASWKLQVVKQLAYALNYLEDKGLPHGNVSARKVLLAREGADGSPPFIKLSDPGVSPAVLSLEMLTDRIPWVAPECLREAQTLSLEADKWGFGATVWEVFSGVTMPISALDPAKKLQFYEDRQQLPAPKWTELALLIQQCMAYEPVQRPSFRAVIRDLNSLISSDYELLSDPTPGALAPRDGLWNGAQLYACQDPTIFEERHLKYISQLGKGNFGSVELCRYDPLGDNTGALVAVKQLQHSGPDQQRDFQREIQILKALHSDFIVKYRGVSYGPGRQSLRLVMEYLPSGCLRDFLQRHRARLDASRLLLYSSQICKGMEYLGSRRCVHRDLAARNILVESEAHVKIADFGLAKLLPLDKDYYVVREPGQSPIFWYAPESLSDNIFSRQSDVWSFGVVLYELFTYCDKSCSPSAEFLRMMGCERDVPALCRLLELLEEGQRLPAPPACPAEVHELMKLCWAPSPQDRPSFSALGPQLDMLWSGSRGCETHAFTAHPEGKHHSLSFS

The next experiment deals with ITK (Homo sapiens (Human), UniProt Q08881). The experiment is described as follows: Eurofins IC50Profiler radiometric kinase assay, ITK. The settings on record: 9 semilog concentrations.
Chain of ITK (Q08881 whole entry, species assumed): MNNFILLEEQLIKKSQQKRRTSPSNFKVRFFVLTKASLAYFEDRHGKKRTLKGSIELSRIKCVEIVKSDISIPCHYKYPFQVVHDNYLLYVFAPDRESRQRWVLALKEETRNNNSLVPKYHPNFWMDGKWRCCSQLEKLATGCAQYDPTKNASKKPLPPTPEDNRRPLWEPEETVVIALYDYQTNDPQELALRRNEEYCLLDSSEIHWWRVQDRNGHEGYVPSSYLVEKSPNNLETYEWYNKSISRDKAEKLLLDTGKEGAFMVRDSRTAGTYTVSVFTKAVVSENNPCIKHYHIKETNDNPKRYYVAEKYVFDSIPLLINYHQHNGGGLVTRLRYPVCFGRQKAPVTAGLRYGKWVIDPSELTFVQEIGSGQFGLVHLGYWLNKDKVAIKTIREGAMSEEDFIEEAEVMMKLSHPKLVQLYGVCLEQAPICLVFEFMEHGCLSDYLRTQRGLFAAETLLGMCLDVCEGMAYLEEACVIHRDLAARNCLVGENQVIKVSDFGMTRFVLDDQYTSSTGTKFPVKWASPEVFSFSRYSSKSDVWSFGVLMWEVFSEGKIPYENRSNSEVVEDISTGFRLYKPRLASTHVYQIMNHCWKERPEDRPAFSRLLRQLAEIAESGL
Text: as §1

With `C=CC(=O)N(C)c1cc(Nc2ncc(Cl)c(NCCCNC(=O)c3ccc(C#N)cc3)n2)ccc1F` [Example 7, N-(3-(5-chloro-2-(4-fluoro-3-(N-methylacrylamido)phenylamino)pyrimidinyl-4-amino)propyl)-4-cyano-benzamide], the IC50 against JAK2 turned out to be 1400 nM. Further, on JAK3, the “JAK3 RV (ratio between the inhibitory rate of the test compound and that of Xeljanz)” value is on record as 0.84; the inhibition at 0.03 µM is 63%. In addition, half-maximal inhibition at ITK (IC50) required 319 nM.

For the molecule `C=CC(=O)N(C)c1cc(Nc2ncc(Cl)c(NCCCNC(=O)c3ccc(C(F)(F)F)cc3)n2)ccc1F` [Example 22, N-(3-(5-chloro-2-(4-fluoro-3-(N-methylacrylamido)phenylamino)pyrimidinyl-4-amino)propyl)-4-trifluoromethylbenzamide], the IC50 on JAK2 is greater than 10000 nM. Further, on JAK3, the “JAK3 RV (ratio between the inhibitory rate of the test compound and that of Xeljanz)” value is on record as 0.82; the inhibition at 0.03 µM came to 75%. This molecule gave an IC50 at ITK greater than 10000 nM.

For `C=CC(=O)N(C)c1cc(Nc2ncc(Cl)c(NCCCNC(=O)c3ccc(F)cc3)n2)ccc1F` [Example 23, N-(3-(5-chloro-2-(4-fluoro-3-(N-methylacrylamido)phenylamino)pyrimidinyl-4-amino)propyl)-4-fluorobenzamide], the figures for the IC50 on JAK2 and at ITK were 1920 nM and greater than 10000 nM, respectively. For the same molecule, the “JAK3 RV (ratio between the inhibitory rate of the test compound and that of Xeljanz)” value on JAK3 was 0.88. On JAK3, the inhibition at 0.03 µM was found to be 81%.
